Source: patent US8138187B2, “Substituted heteroaryl derivatives” (Gruenenthal GmbH, priority 2006, dated 2012)

Molecular target: human μ opiate receptor (Homo sapiens, UniProt P35372)
Assay: μ binding, displacement of [3H]-naloxone
Conditions: CHO-K1 membranes expressing human μ opiate receptor; Cheng-Prusoff

human μ opiate receptor, sequence (P35372 whole entry): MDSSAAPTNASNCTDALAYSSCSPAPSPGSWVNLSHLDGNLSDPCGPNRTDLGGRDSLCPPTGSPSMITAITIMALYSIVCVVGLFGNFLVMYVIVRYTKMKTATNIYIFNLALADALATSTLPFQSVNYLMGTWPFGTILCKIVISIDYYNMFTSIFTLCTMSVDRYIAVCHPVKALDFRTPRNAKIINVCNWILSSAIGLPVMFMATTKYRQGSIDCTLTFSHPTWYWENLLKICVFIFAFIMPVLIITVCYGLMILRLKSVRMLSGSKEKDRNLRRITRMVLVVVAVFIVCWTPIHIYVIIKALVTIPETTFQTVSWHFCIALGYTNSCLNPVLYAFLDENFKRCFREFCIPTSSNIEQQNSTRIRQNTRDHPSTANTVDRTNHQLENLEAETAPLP

**Q.** How did the Ki turn out when `CN(C)C1(Cc2ccccc2)CC=C(c2cc3ccccc3n2C)CC1` (stereo not shown) [Example 302, [1-Benzyl-4-(1-methyl-1H-indol-2-yl)cyclohex-3-enyl]dimethylamine] was run?
**A.** The Ki was 0.103 µM.
